Patent US20220047752A1, “BIOLOGICAL INDICATOR FOR DISINFECTION PROCESS CHALLENGE DEVICE” (3M INNOVATIVE PROPERTIES COMPANY, priority 2016, published 2022)

Experiments:
[1] = tested on: Aspergillus brasiliensis (ATCC 16404) spores; test: Liquid disinfection process in AER basin, indicator device not connected to the pump; spore viability in malt extract broth; assay type: cell-based; details: 0.35% OPA (minimum effective concentration), 5 minute contact at 25 C, two rinses with purified water; approx. 1x10^6 spores on carrier; broth incubated 7 days at 30 C
Description: (§1) Aspergillus brasiliensis (ATCC 16404) was inoculated onto the surface of a potato dextrose agar culture and incubated 14 days at 25-30° C. After the incubation period, the surface of the plate was flooded with an aqueous solution of glycerol (10% v/v) and Tween 20 detergent (0.05% v/v). The viable fungal spore population was determined by standard plate counting method using PETRIFILM™ Rapid Yeast and Mold Count Plates (RYM) obtained from 3M Company (St. Paul, Minn.). The plates were incubated at 28-30° C. for 2-3 days. The resulting spore suspension was stored at −80 degrees C. until use.
(§2) The spore suspension was diluted in water to a concentration of approximately 10^8 spores/mL. Ten microliters (approximately 1×10^6 spores) of the diluted spore suspension was pipetted onto a circular disc (approximately 0.25 inch (6.4 mm) diameter) nonwoven carrier material (Sontara® grade 8005 nonwoven material obtained from Dupont (Candler, N.C.)). The spore-coated discs were allowed to dry for 24 hours at room temperature before assembling the indicator device.
(§3) Indicator devices were made by inserting aerosol-filter pipet tips (Part #16466-008; sterile aerosol 1000 uL pipet tips; VWR; Radnor, Pa.) into a piece of hollow tubing (Part #14-169-7C; PVC tubing, 0.25-inch (6.4 mm) inner diameter; Fisher Scientific; Waltham, Mass.), as shown in FIGS. 13-14. […]

[2] = tested on: Aspergillus brasiliensis (ATCC 16404) spores; test: Flow-through disinfection, indicator device connected to the AER flow pump system; spore viability in malt extract broth; assay type: cell-based; details: 0.35% OPA at 25 C pumped through device at approx. 25 ml/min, incubated up to 7 days, duplicate devices
Description: as §1, §2, §3

Measured: growth of spores in malt extract broth after contact with the liquid disinfectant

O=Cc1ccccc1C=O [OPA, ortho-phthalaldehyde]
No growth: [1] | [2]; 30 seconds contact | [2]; 5 minutes contact
